Results as given in article PMC6627487, “Butenolide Derivatives with α-Glucosidase Inhibitions from the Deep-Sea-Derived Fungus Aspergillus terreus YPGA10” (Marine Drugs, 2019).
Where two headings read alike, the source gives them in different places.

Biological target: α-glucosidase from Saccharomyes cerevisiae (Saccharomyces cerevisiae, UniProt P53341)
Assay: α-Glucosidase inhibition assay (PNPG substrate, OD 405 nm)
Assay type: biochemical
Conditions: for inhibition at 100 µM: read-out: %Inhibition (100 μM); for inhibitory activity against α-glucosidase, in words: at 100 μM; for inhibition at 50 µM: read-out: %Inhibition (50 μM)
Method: The α-glucosidase inhibitory effect was assessed using a previously described method with slight modification. 0.2 U of α-glucosidase from Saccharomyes cerevisiae purchased from Sigma-Aldrich (St. Louis, MO, USA) was diluted to 0.1 M phosphate buffer consisting of Na2HPO4 and NaH2PO4 (pH 6.8). The assay was conducted in a 200 μL reaction system containing 148 μL of the buffer, 25 μL of diluted enzyme solution, and 2 μL of DMSO or sample (dissolved in DMSO). After 20 min of incubation in the 96-well plates at 37 °C, 25 μL of 0.4 mM 4-nitrophenyl-[…]-D-glucopyranoside (PNPG, Aladdin, Shanghai, China) was added as a substrate to start the enzymatic reaction. The plate was incubated for an additional 15 min at 37 °C, followed by the measurement of the optical density (OD). The final concentrations of tested compounds were between 0.39 and 100 μM. The OD was measured at an absorbance wavelength of 405 nm using a Microplate Reader (Tecan, Switzerland).

[1] = α-glucosidase, compound at 100 μM

Chain of α-glucosidase from Saccharomyes cerevisiae (P53341 whole entry): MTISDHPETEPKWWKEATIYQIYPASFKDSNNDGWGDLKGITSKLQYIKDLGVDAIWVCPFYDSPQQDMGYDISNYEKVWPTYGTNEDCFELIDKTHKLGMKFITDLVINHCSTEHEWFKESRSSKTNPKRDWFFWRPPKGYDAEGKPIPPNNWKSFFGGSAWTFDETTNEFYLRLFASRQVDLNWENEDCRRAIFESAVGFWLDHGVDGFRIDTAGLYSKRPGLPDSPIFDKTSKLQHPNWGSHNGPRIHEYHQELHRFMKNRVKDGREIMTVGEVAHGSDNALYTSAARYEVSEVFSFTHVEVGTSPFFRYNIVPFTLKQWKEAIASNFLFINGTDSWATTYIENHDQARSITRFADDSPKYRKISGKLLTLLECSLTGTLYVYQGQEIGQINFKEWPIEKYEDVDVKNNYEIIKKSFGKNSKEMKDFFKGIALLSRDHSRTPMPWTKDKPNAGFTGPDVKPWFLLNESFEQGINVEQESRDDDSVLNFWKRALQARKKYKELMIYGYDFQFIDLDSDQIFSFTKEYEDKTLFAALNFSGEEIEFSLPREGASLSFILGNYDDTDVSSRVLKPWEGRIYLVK

inhibition at 100 µM [1] | Compound | inhibition at 100 µM | inhibitory activity against α-glucosidase, in words | inhibition at 50 µM
18.6% | COC(=O)[C@]1(Cc2ccc3c(c2)C[C@H](C(C)(C)O)O3)OC(=O)C(O)=C1c1ccccc1 [Compound 1, Aspernolide N] |  |  | 
23.2% | CCOC(=O)[C@]1(Cc2ccc3c(c2)C[C@H](C(C)(C)O)O3)OC(=O)C(O)=C1c1ccc(O)cc1 [Compound 2, Aspernolide O] |  |  | 
26.4% | CCOC(=O)[C@]1(Cc2ccc3c(c2)CC(O)C(C)(C)O3)OC(=O)C(O)=C1c1ccc(O)cc1 (stereo partly shown) [Compound 3, Aspernolide P] |  |  | 
 | COC(=O)[C@]1(Cc2ccc3c(c2)C[C@H](C(C)(C)O)O3)OC(=O)C(O)=C1c1ccc(O)cc1 [Compound 4, butyrolactone IV] | 37.3% |  | 
21.6% | COC(=O)[C@]1(Cc2ccc3c(c2)C[C@H](O)C(C)(C)O3)OC(=O)C(O)=C1c1ccc(O)cc1 [Compound 5, butyrolactone V] |  | negligible inhibitory activity | 
 | COC(=O)[C@]1(Cc2ccc(O)c(CC=C(C)C)c2)OC(=O)C(O)=C1c1ccc(O)cc1 [Compound 6, butyrolactone I] | 100% |  | 89.4%
 | CCOC(=O)[C@]1(Cc2ccc(O)c(CC=C(C)C)c2)OC(=O)C(O)=C1c1ccc(O)cc1 [Compound 7, butyrolactone VII] | 100% |  | 98.7%
 | COC(=O)[C@]1(Cc2ccc3c(c2)CCC(C)(C)O3)OC(=O)C(O)=C1c1ccc(O)cc1 [Compound 8, aspernolide A] | 89.2% | significant inhibition | 
90.4% | COC(=O)[C@]1(Cc2ccc3c(c2)C=CC(C)(C)O3)OC(=O)C(O)=C1c1ccc(O)cc1 [Compound 9, aspernolide E] |  |  | 
